# Results from patent publication US20100062464A1, “OXIDATIVE CHROMOGENIC COMPOUND OR SALT THEREOF AND PRODUCTION METHOD THEREOF, AND REAGENT COMPOSITION AND TEST INSTRUMENT USING THE SAME” (Terumo Kabushiki Kaisha, priority 2007, published 2010).
# Tests used:
# [1] = Time-dependent change in reflection-absorbance of test piece (Example 7); details: test piece with MAOS, succinate buffer pH 5.0; human blood, hematocrit 40%, 400 mg/dL blood glucose; FIG. 3
# Experimental: (§1) Using a coating liquid having a composition shown in the following Table 5, a polyether sulfone membrane (membrane thickness: 130 μm) manufactured by Terumo Corporation was coated by Kiss-Coat method, and dried for 18 hours at 37° C. Then, the membrane was cut to give a 1-cm square as a test piece.
# The evaluation using blood was conducted by fixing the test piece in a reflectance spectrophotometer, adding 1 μL of specimen dropwise onto the test membrane from above, and measuring reflection-absorbance continuously or at the predetermined time.
# The time-dependent changes in the reflection-absorbance was measured using as a coupler compound 4-amino antyprine (4-AA), CP1 or CP2, the test piece prepared by the above method, and human blood adjusted to 40% of hematocrit level and 400 mg/dL of blood glucose level as specimen. It is noted from the results shown in FIG. 3 that 15 seconds was required for reflection-absorbance to become steady when using 4-AA, a conventional coupler, while less than 5 seconds was required for reflection-absorbance to become steady when using CP1, and particularly when using CP2, reflection-absorbance reached peak within only about 3 seconds. That is, it was observed that a measuring time was able to be shortened by using the reagent composition of the present invention.
# [2] = Residual ratio of coupler in test piece after thermal acceleration, HPLC (Example 9); format: physicochemical; details: 60° C., 1 hour, oven under vacuum; relative to test piece before thermal acceleration; HPLC 254 nm; FIG. 5
# Experimental: as §1, with “6,” for “5,”, “punched out” for “cut”, “circle of φ6 mm” for “1-cm square”
# The test piece was placed in an oven under vacuum at 60° C. for 1 hour to be subjected to thermal acceleration. Then, the test piece was subjected to ultrasonic treatment for 10 minutes using 1 ml of an aqueous 60% acetonitrile solution, and extracted. The amount of reagent in the resultant extract was determined by HPLC under such conditions as of eluent: 60% of acetonitrile/50 mM of phosphate buffer (pH 7.5), eluent flow rate: 1 mL/minute, column temperature: 40° C., column: Hydrosphere C18 250×4.6 mm (manufactured by YMC Co., Ltd.), measuring wavelength: 254 nm, and injection volume: 20 μL. According to this method, the residual ratios of 4-AA and CP2 contained in the test piece after thermal acceleration were respectively compared with those of the test pieces before thermal acceleration. It is noted from the results shown in FIG. 5 that the residual ratio of 4-AA is not more than 70%, while the residual ratio of CP2 is approximately 100%. […]
# [3] = Maximum concentration of coating liquid for measuring glucose (solubility of coupler)
# Experimental: As an example of a coating liquid composition for measuring glucose, an experiment was conducted to determine a maximum concentration of a coating liquid.
# Basic Composition (in 100 mL Water)
Solubility as compared with 4-aminoantipyrine [3],Solubility of coupler ([3]; pH 5),SMILES,Time required for reflection-absorbance to become steady / reach peak [1],Residual ratio in test piece after thermal acceleration [2],"Solubility of coupler ([3]; how many times the amounts of all reagents of the basic composition (100 mL water, TOOS, Triton X-100, citrate pH 5.0) can be increased and still give a uniform solution, coupler equimolar to 4-AA)"
,,"Cc1c(N)c(=O)n(-c2ccccc2)n1C [4-AA, 4-aminoantipyrine, reference compound]",15 s,not more than 70%,5 times by volume
high solubility,8 times by volume,"Cc1c(N)c(=O)n(-c2ccc(C(=O)O)cc2)n1C [CP1, 4-amino-1-(4-carboxyphenyl)-2,3-dimethyl-5-pyrazolone]",less than 5 seconds,,
high solubility,10 times by volume,"Cc1c(N)c(=O)n(-c2cccc(S(=O)(=O)O)c2)n1C [CP6, 4-amino-1-(3-sulfophenyl)-2,3-dimethyl-5-pyrazolone]",,,
high solubility,10 times by volume,"Cc1c(N)c(=O)n(-c2ccc(S(=O)(=O)O)cc2)n1C [CP2, 4-amino-1-(4-sulfophenyl)-2,3-dimethyl-5-pyrazolone]",about 3 seconds,approximately 100%,
